The text below walks through data of patent US11713338B2, “Cyclic peptides multimers targeting α-4-β-7 integrin” (priority 2016, dated 2023).

The structures appear in SMILES notation. Where two headings read alike, the source gives them in different places.

The target of the test is T1, integrin α4β7 (RPMI8866 human cells adhering to MAdCAM-1) (Homo sapiens, UniProt P13612+P26010).
T1 construct: RMP18866 cells, which express integrin α4β7; host or cells: RPMI8866
T1 sequence (P13612 34-1032): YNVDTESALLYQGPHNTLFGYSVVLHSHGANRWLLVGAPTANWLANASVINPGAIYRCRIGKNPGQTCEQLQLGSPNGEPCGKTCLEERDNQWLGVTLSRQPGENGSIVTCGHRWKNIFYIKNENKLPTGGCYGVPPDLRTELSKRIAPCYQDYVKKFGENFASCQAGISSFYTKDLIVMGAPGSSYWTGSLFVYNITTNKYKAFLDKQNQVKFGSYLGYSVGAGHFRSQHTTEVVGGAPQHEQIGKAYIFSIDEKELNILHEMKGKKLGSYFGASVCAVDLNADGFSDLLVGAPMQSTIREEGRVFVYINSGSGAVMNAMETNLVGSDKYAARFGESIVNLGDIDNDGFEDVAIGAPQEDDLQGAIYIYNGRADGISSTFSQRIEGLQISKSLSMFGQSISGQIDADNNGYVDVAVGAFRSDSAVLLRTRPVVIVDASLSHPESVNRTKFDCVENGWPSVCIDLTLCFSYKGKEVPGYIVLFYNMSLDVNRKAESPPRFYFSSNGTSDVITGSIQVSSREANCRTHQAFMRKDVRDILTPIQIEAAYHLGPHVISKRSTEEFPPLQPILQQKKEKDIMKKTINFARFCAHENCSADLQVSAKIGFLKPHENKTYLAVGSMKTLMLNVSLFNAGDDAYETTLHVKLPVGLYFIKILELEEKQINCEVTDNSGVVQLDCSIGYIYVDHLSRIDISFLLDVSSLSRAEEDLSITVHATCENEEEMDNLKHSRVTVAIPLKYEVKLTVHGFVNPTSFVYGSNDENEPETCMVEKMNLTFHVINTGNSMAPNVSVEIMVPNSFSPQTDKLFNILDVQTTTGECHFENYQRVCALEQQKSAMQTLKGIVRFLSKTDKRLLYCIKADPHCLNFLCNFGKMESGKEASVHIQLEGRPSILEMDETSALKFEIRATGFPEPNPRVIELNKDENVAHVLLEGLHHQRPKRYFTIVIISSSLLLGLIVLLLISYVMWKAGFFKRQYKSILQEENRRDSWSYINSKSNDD
T1 sequence (P26010 20-798): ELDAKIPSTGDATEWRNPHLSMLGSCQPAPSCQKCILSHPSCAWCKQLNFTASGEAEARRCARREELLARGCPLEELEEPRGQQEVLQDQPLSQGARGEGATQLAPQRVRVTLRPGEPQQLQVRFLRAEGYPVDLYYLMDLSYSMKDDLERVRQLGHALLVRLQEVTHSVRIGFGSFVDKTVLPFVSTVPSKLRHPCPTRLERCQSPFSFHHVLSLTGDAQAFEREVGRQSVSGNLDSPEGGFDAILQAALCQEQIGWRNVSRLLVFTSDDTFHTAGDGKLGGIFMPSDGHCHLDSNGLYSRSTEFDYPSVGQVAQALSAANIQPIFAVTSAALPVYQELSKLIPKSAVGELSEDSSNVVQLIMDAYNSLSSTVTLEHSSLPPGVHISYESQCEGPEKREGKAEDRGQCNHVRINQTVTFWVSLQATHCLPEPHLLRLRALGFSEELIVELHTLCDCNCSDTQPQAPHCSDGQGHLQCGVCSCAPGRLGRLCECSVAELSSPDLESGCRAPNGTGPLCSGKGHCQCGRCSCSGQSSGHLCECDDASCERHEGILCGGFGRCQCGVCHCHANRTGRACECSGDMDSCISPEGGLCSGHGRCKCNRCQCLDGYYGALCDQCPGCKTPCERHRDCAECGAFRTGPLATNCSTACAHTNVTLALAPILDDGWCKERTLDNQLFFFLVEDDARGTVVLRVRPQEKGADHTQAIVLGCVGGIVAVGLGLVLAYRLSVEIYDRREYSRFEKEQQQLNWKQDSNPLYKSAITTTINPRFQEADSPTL
Nature of the test: Integrin α4β7-MAdCAM cell adhesion assay (RPMI8866 cells). The test is classed as cell-based. The essentials: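 RPMI8866 cells were loaded with […] calcein in PBS for 30 min at 37° C. After plate washes with PBS, fluorescence of adherent cells was read, and no-cell control wells were subtracted from each test well to build the dose response.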

The mark [1] stands for this setting: RPMI8866 cells adhering to MAdCAM, read-out: RPMI8866 Adhesion α4β7/MAdCAM IC50.

`CC(C)C[C@@H]1NC(=O)c2ccc(-c3ccc(N4CCN(CC(=O)N5CCN(c6ccc(-c7ccc8cc7CNC(=O)[C@@H]7CCCN7[C@H](C(=O)NC(C)(C)C)[C@H](C)NC(=O)[C@H]([C@@H](C)O)NC(=O)[C@H](CC(=O)O)NC(=O)[C@H](CC(C)C)NC8=O)cc6)CC5)CC4)cc3)c(c2)CNC(=O)[C@@H]2CCCN2[C@H](C(=O)NC(C)(C)C)[C@H](C)NC(=O)[C@H]([C@@H](C)O)NC(=O)[C@H](CC(=O)O)NC1=O` [Compound 481]: under setting [1], the IC50 worked out at 0.036 µM.

Regarding `CC(C)C[C@@H]1NC(=O)c2ccc(-c3ccc(N4CCN(CCC(=O)N5CCN(c6ccc(-c7ccc8cc7CNC(=O)[C@@H]7CCCN7[C@H](C(=O)NC(C)(C)C)[C@H](C)NC(=O)[C@H]([C@@H](C)O)NC(=O)[C@H](CC(=O)O)NC(=O)[C@H](CC(C)C)NC8=O)cc6)CC5)CC4)cc3)c(c2)CNC(=O)[C@@H]2CCCN2[C@H](C(=O)NC(C)(C)C)[C@H](C)NC(=O)[C@H]([C@@H](C)O)NC(=O)[C@H](CC(=O)O)NC1=O` [Compound 482], the IC50 under setting [1] was 0.026 µM. `CC(C)C[C@@H]1NC(=O)c2ccc(-c3ccc(N4CCN(C(=O)CCC(=O)N5CCN(c6ccc(-c7ccc8cc7CNC(=O)[C@@H]7CCCN7[C@H](C(=O)NC(C)(C)C)[C@H](C)NC(=O)[C@H]([C@@H](C)O)NC(=O)[C@H](CC(=O)O)NC(=O)[C@H](CC(C)C)NC8=O)cc6)CC5)CC4)cc3)c(c2)CNC(=O)[C@@H]2CCCN2[C@H](C(=O)NC(C)(C)C)[C@H](C)NC(=O)[C@H]([C@@H](C)O)NC(=O)[C@H](CC(=O)O)NC1=O` [Compound 484]: the IC50 under setting [1] stood at 0.014 µM. Turning to `CC(C)C[C@@H]1NC(=O)c2ccc(-c3ccc(N4CCN(C(=O)C[C@@H](N)C(=O)N5CCN(c6ccc(-c7ccc8cc7CNC(=O)[C@@H]7CCCN7[C@H](C(=O)NC(C)(C)C)[C@H](C)NC(=O)[C@H]([C@@H](C)O)NC(=O)[C@H](CC(=O)O)NC(=O)[C@H](CC(C)C)NC8=O)cc6)CC5)CC4)cc3)c(c2)CNC(=O)[C@@H]2CCCN2[C@H](C(=O)NC(C)(C)C)[C@H](C)NC(=O)[C@H]([C@@H](C)O)NC(=O)[C@H](CC(=O)O)NC1=O` [Compound 493], under setting [1], the IC50 stood at 0.045 µM. For `CC(C)C[C@@H]1NC(=O)c2ccc(-c3ccc(N4CCN(C(=O)CC[C@H](N)C(=O)N5CCN(c6ccc(-c7ccc8cc7CNC(=O)[C@@H]7CCCN7[C@H](C(=O)NC(C)(C)C)[C@H](C)NC(=O)[C@H]([C@@H](C)O)NC(=O)[C@H](CC(=O)O)NC(=O)[C@H](CC(C)C)NC8=O)cc6)CC5)CC4)cc3)c(c2)CNC(=O)[C@@H]2CCCN2[C@H](C(=O)NC(C)(C)C)[C@H](C)NC(=O)[C@H]([C@@H](C)O)NC(=O)[C@H](CC(=O)O)NC1=O` [Compound 494], under setting [1], the IC50 worked out at 0.05 µM. As for `CC(C)C[C@@H]1NC(=O)c2ccc(-c3ccc(N4CCN(C(=O)[C@H](CCCCNC(=O)CCCCCC(=O)NCCCC[C@H](NC(=O)OCc5ccccc5)C(=O)N5CCN(c6ccc(-c7ccc8cc7CNC(=O)[C@@H]7CCCN7[C@H](C(=O)NC(C)(C)C)[C@H](C)NC(=O)[C@H]([C@@H](C)O)NC(=O)[C@H](CC(=O)O)NC(=O)[C@H](CC(C)C)NC8=O)cc6)CC5)NC(=O)OCc5ccccc5)CC4)cc3)c(c2)CNC(=O)[C@@H]2CCCN2[C@H](C(=O)NC(C)(C)C)[C@H](C)NC(=O)[C@H]([C@@H](C)O)NC(=O)[C@H](CC(=O)O)NC1=O` [Compound 498], the IC50 under setting [1] worked out at 0.036 µM. Same read-out and setting: to `CC(C)C[C@@H]1NC(=O)c2ccc(-c3ccc(N4CCN(Cc5cccc(CN6CCN(c7ccc(-c8ccc9cc8CNC(=O)[C@@H]8CCCN8[C@H](C(=O)NC(C)(C)C)[C@H](C)NC(=O)[C@H]([C@@H](C)O)NC(=O)[C@H](CC(=O)O)NC(=O)[C@H](CC(C)C)NC9=O)cc7)CC6)c5)CC4)cc3)c(c2)CNC(=O)[C@@H]2CCCN2[C@H](C(=O)NC(C)(C)C)[C@H](C)NC(=O)[C@H]([C@@H](C)O)NC(=O)[C@H](CC(=O)O)NC1=O` [Compound 499] belongs 0.042 µM; to `CC(C)C[C@@H]1NC(=O)c2ccc(-c3ccc(N4CCN(Cc5ccc(CN6CCN(c7ccc(-c8ccc9cc8CNC(=O)[C@@H]8CCCN8[C@H](C(=O)NC(C)(C)C)[C@H](C)NC(=O)[C@H]([C@@H](C)O)NC(=O)[C@H](CC(=O)O)NC(=O)[C@H](CC(C)C)NC9=O)cc7)CC6)cc5)CC4)cc3)c(c2)CNC(=O)[C@@H]2CCCN2[C@H](C(=O)NC(C)(C)C)[C@H](C)NC(=O)[C@H]([C@@H](C)O)NC(=O)[C@H](CC(=O)O)NC1=O` [Compound 500], 0.032 µM; to `CC(C)C[C@@H]1NC(=O)c2ccc(-c3ccc(N4CCN(C(=O)CCOCCOCCNC(=O)CCCCCC(=O)NCCOCCOCCC(=O)N5CCN(c6ccc(-c7ccc8cc7CNC(=O)[C@@H]7CCCN7[C@H](C(=O)NC(C)(C)C)[C@H](C)NC(=O)[C@H]([C@@H](C)O)NC(=O)[C@H](CC(=O)O)NC(=O)[C@H](CC(C)C)NC8=O)cc6)CC5)CC4)cc3)c(c2)CNC(=O)[C@@H]2CCCN2[C@H](C(=O)NC(C)(C)C)[C@H](C)NC(=O)[C@H]([C@@H](C)O)NC(=O)[C@H](CC(=O)O)NC1=O` [Compound 505], 0.059 µM. For `CC(C)C[C@@H]1NC(=O)c2ccc(-c3ccc(N4CCN(C(=O)CCOCCOCCOCCOCCOCCOCCOCCOCCOCCOCCC(=O)N5CCN(c6ccc(-c7ccc8cc7CNC(=O)[C@@H]7CCCN7[C@H](C(=O)NC(C)(C)C)[C@H](C)NC(=O)[C@H]([C@@H](C)O)NC(=O)[C@H](CC(=O)O)NC(=O)[C@H](CC(C)C)NC8=O)cc6)CC5)CC4)cc3)c(c2)CNC(=O)[C@@H]2CCCN2[C@H](C(=O)NC(C)(C)C)[C@H](C)NC(=O)[C@H]([C@@H](C)O)NC(=O)[C@H](CC(=O)O)NC1=O` [Compound 511], under setting [1], the IC50 came to 0.03 µM. Take `CC(C)C[C@@H]1NC(=O)c2ccc(-c3ccc(N4CCN(C(=O)c5ccccc5-c5ccccc5C(=O)N5CCN(c6ccc(-c7ccc8cc7CNC(=O)[C@@H]7CCCN7[C@H](C(=O)NC(C)(C)C)[C@H](C)NC(=O)[C@H]([C@@H](C)O)NC(=O)[C@H](CC(=O)O)NC(=O)[C@H](CC(C)C)NC8=O)cc6)CC5)CC4)cc3)c(c2)CNC(=O)[C@@H]2CCCN2[C@H](C(=O)NC(C)(C)C)[C@H](C)NC(=O)[C@H]([C@@H](C)O)NC(=O)[C@H](CC(=O)O)NC1=O` [Compound 517]: the IC50 was 0.01 µM under setting [1] and 0.0099 µM (RPMI8866 cells, read-out: IC50 in the RPMI8866 cell adhesion assay). Turning to `CC(C)C[C@@H]1NC(=O)c2ccc(-c3ccc(N4CCN(Cc5cc(CN6CCN(c7ccc(-c8ccc9cc8CNC(=O)[C@@H]8CCCN8[C@H](C(=O)NC(C)(C)C)[C@H](C)NC(=O)[C@H]([C@@H](C)O)NC(=O)[C@H](CC(=O)O)NC(=O)[C@H](CC(C)C)NC9=O)cc7)CC6)cc(CN6CCN(c7ccc(-c8ccc9cc8CNC(=O)[C@@H]8CCCN8[C@H](C(=O)NC(C)(C)C)[C@H](C)NC(=O)[C@H]([C@@H](C)O)NC(=O)[C@H](CC(=O)O)NC(=O)[C@H](CC(C)C)NC9=O)cc7)CC6)c5)CC4)cc3)c(c2)CNC(=O)[C@@H]2CCCN2[C@H](C(=O)NC(C)(C)C)[C@H](C)NC(=O)[C@H]([C@@H](C)O)NC(=O)[C@H](CC(=O)O)NC1=O` [Compound 518], under setting [1], the IC50 was found to be 0.018 µM.
